Measurements taken from PubChem BioAssay (NCI).
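A five-concentration, 48-hour dose response in 96-well plates underlies each endpoint, interpolated linearly between surrounding concentrations. The concentration for 50% growth inhibition is given as GI50. The concentration for full growth arrest is given as TGI.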

Legend:
Experiment in all cases: inhibition of tumour cell growth, NCI panel, 48 h
[1] = test system: HT29 colon
[2] = test system: SNB-19 CNS
[3] = test system: OVCAR-5 ovarian
[4] = test system: A549 NSCLC
[5] = test system: LOX IMVI melanoma
[6] = test system: ACHN renal
[7] = test system: OVCAR-3 ovarian
[8] = test system: HOP-92 NSCLC
[9] = test system: MCF7 breast
[10] = test system: PC-3 prostate

| Structure (SMILES) | TGI [1] | TGI [2] | TGI [3] | TGI [4] | TGI [5] | TGI [6] | TGI [7] | TGI [8] | TGI [9] | TGI [10] | GI50 [1] | GI50 [2] | GI50 [10] | GI50 [4] | GI50 [9] | GI50 [5] | GI50 [6] |
| --- | --- | --- | --- | --- | --- | --- | --- | --- | --- | --- | --- | --- | --- | --- | --- | --- | --- |
| Cc1c(C(=O)CSc2nc3ccccc3c(=O)n2-c2ccccc2)c(=O)n(-c2ccccc2)n1C | > 100 µM | > 100 µM | > 100 µM | > 100 µM | > 100 µM | > 100 µM | 73.5 µM | 95.8 µM | – | – | – | – | – | – | – | – | – |
| COCOc1ccc(Cn2c(=O)n(C)c(=O)c3c2ncn3C)cc1[N+](=O)[O-] | > 100 µM | > 100 µM | – | > 100 µM | > 100 µM | > 100 µM | > 100 µM | – | – | – | – | – | – | – | – | – | – |
| O=C(NC(Cc1ccc(I)cc1)C(=O)O)c1ccc(I)cc1 (centres undefined) | > 100 µM | > 100 µM | > 100 µM | > 100 µM | > 100 µM | – | 97.4 µM | > 100 µM | > 100 µM | – | – | – | – | – | – | – | – |
| O=C(/C=C/c1ccsc1)c1ccsc1 | 74.8 µM | 47.7 µM | – | > 100 µM | 35.2 µM | 42.6 µM | – | – | 32.4 µM | 35.6 µM | – | – | – | – | – | – | – |
| COc1cc([N+](=O)[O-])c(OC)cc1-c1nc2sc(Cl)cn2c1/C=N/Nc1ccccn1 | > 50 µM | > 50 µM | – | > 50 µM | > 50 µM | 16.9 µM | – | – | 32 µM | > 50 µM | > 50 µM | > 50 µM | 16.4 µM | > 50 µM | 11.1 µM | > 50 µM | 8.43 µM |
| COc1nc(C#CCC(C)O)nc(OC)n1 (centres undefined) | > 100 µM | > 100 µM | 33.3 µM | 52.9 µM | 40.6 µM | 33.3 µM | 47.9 µM | – | 33.5 µM | 54.6 µM | – | – | – | – | – | – | – |
| CC(=O)OCC1OC(n2cc([N+](=O)[O-])c(=O)[nH]c2=O)C(OC(C)=O)C(OC(C)=O)C1OC(C)=O (centres undefined) | > 100 µM | > 100 µM | > 100 µM | > 100 µM | > 100 µM | > 100 µM | > 100 µM | > 100 µM | – | – | – | – | – | – | – | – | – |
| CC(C(=O)n1nnc2ccccc21)N(c1ccccc1)c1ccccc1 (centres undefined) | > 100 µM | > 100 µM | > 100 µM | > 100 µM | > 100 µM | > 100 µM | > 100 µM | – | – | – | – | – | – | – | – | – | – |
| C=CC[C@]12C[C@@H](C(=O)OC)N(C(=O)OC)[C@H]1N(S(=O)(=O)c1ccccc1)c1ccccc12 | > 100 µM | > 100 µM | > 100 µM | > 100 µM | – | > 100 µM | > 100 µM | > 100 µM | > 100 µM | > 100 µM | – | – | – | – | – | – | – |
| CCCNC(=O)CCC(C)[C@H]1CCC2C3C(C[C@H](OC(C)=O)[C@@]21C)[C@@]1(C)CCC2(C[C@H]1C[C@H]3OC(C)=O)OOC1(CCC(C)CC1)OO2 (some centres undefined) | > 100 µM | > 100 µM | 87.4 µM | 5.26 µM | – | 4.08 µM | 18.5 µM | 1.98 µM | > 100 µM | > 100 µM | – | – | – | – | – | – | – |
| O=C1c2cc3c(cc2CC1Br)CCC3 (centres undefined) | 5.78 µM | 27.6 µM | 14.9 µM | 38.7 µM | 2 µM | 13.1 µM | 3.86 µM | – | – | 11.7 µM | – | – | – | – | – | – | – |
| Cc1cc2[nH]c3[nH]c(=O)[nH]c(=O)c3c2cc1C | > 100 µM | > 100 µM | > 100 µM | > 100 µM | > 100 µM | > 100 µM | – | > 100 µM | > 100 µM | – | – | – | – | – | – | – | – |
| O=S(=O)(O)c1cc2ccc1/C=C\c1ccc(cc1S(=O)(=O)O)N=Nc1ccc(c(S(=O)(=O)O)c1)/C=C\c1ccc(cc1S(=O)(=O)O)N=N2 | > 100 µM | > 100 µM | > 100 µM | > 100 µM | > 100 µM | – | > 100 µM | > 100 µM | > 100 µM | – | – | – | – | – | – | – | – |
| COc1ccc(CC(O)CN2CCOCC2)cc1 (centres undefined) | > 100 µM | > 100 µM | > 100 µM | > 100 µM | > 100 µM | > 100 µM | > 100 µM | > 100 µM | – | > 100 µM | – | – | – | – | – | – | – |
| Cc1cn(C2OC(C)(CO)C(O)C2O)c(=O)[nH]c1=O (centres undefined) | > 100 µM | > 100 µM | > 100 µM | > 100 µM | > 100 µM | > 100 µM | > 100 µM | > 100 µM | – | – | – | – | – | – | – | – | – |
| CCCCC1c2c([nH]c3ccccc23)C2C(=O)N(c3ccc(OC)cc3)C(=O)C2C1CCC (centres undefined) | 8.52 µM | > 10 µM | > 10 µM | > 10 µM | > 10 µM | > 10 µM | 6.26 µM | 7.86 µM | – | 7.46 µM | – | – | – | – | – | – | – |
| C=CCOC(=O)CC[N+]1=CCC(c2ccccc2)(c2ccccc2)O1 | > 100 µM | > 100 µM | > 100 µM | > 100 µM | – | > 100 µM | > 100 µM | > 100 µM | > 100 µM | > 100 µM | – | – | – | – | – | – | – |
